Read-outs that look alike come from different tables or passages of the source.
Biological target: biotinylated Avi-POLθ[2-894] (Homo sapiens (Human), UniProt O75417)
Assay: POLθ ATPase assay (ADP-Glo)
Conditions: n=2, read-out: Biochemical ATPase ADPGlo IC50

Sequence of biotinylated Avi-POLθ[2-894] (O75417 2-894): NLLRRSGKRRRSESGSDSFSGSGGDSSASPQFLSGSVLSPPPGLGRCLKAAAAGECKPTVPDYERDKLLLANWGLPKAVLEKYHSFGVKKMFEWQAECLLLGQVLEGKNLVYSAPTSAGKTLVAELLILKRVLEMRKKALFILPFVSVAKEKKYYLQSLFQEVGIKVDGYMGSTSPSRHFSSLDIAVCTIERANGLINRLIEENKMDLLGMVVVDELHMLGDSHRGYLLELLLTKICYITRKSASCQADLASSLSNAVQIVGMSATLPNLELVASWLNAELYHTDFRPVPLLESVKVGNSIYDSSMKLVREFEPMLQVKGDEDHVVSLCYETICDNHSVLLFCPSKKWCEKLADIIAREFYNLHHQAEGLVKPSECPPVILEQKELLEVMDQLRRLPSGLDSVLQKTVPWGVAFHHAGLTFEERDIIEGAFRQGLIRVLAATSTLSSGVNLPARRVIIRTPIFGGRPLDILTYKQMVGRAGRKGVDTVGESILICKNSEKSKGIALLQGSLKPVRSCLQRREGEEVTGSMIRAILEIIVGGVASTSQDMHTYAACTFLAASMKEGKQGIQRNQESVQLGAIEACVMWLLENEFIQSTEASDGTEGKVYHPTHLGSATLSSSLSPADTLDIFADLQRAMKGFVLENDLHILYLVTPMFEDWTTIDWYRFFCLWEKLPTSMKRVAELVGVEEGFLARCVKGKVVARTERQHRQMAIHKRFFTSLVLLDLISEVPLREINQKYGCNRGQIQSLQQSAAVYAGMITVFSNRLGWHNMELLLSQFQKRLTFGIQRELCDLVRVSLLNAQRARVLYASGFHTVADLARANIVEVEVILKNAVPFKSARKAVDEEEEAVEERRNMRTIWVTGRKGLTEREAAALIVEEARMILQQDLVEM

Compound	IC50 [nM]	IC50 (POLθ ATPase, ADP-Glo) [nM]
COc1ccc(C#N)cc1-c1cc(C)ncc1C(=O)Nc1nc2c(s1)CN(S(=O)(=O)C1CCOCC1)C2	50 to 150	
COc1ccccc1-c1cc(C)ncc1C(=O)Nc1nc2c(s1)CN(C(=O)c1cc(OC)n(C)n1)C2	150 to 900	
COc1ccccc1-c1cc(C)ncc1C(=O)Nc1nc2c(s1)CN(C(=O)c1ccncc1)C2	50 to 150	
COc1cnc(Cl)cc1-c1cc(C)ncc1C(=O)Nc1nc2c(s1)CN(C(=O)C1CC(N(C)C)C1)C2 (centres unmarked) [Example 43, 2′-chloro-N-(5-(3-(dimethylamino)cyclobutane-1-carbonyl)-5,6-dihydro-4H-pyrrolo[3,4-d]thiazol-2-yl)-5′-methoxy-6-methyl-[4,4′-bipyridine]-3-carboxamide]	150 to 900	
COc1ccccc1-c1cc(C)ncc1C(=O)Nc1nc2c(s1)CN(C(=O)c1cn(C)nn1)C2	150 to 900	
COc1cnc(Cl)cc1-c1cc(C)ncc1C(=O)Nc1nc2c(s1)CN(C(=O)c1cncc(C)n1)C2		1 to 15
COc1ccc(C#N)cc1-c1cc(C)ncc1C(=O)Nc1nc2c(s1)CN(C(=O)C1CCOC1)CC2 (centres unmarked)	150 to 900	
COc1cn2cncc2cc1-c1cc(C)ncc1C(=O)Nc1nc2c(s1)CN(C(=O)[C@H]1C[C@H](OC(F)(F)F)C1)C2 [Example 22, 4-(6-methoxyimidazo[1,5-a]pyridin-7-yl)-6-methyl-N-(5-((1r,3r)-3-(trifluoromethoxy)cyclobutane-1-carbonyl)-5,6-dihydro-4H-pyrrolo[3,4-d]thiazol-2-yl)nicotinamide]	15 to 50	
COc1ccccc1-c1cc(C)ncc1C(=O)Nc1nc2c(s1)CN(C(=O)Cn1cccn1)C2	≥ 900	
COc1ccccc1-c1cc(C)ncc1C(=O)Nc1nc2c(s1)CC(c1ccc(Cl)cc1)CC2 (racemic)	150 to 900	
COc1ccc(C#N)cc1-c1cc(C)ncc1C(=O)Nc1nc2c(s1)CN(C(=O)[C@H]1CCCOC1)CC2	≥ 900	
COc1ccc(C#N)cc1-c1cc(C)ncc1C(=O)Nc1nc2c(s1)CN(S(=O)(=O)C1CCC1)C2	50 to 150	
COc1cnc(Cl)cc1-c1cc(C)ncc1C(=O)Nc1nc2c(s1)CN(C(=O)c1nn(C)cc1C)C2 [Example 65, 2′-chloro-N-(5-(1,4-dimethyl-1H-pyrazole-3-carbonyl)-5,6-dihydro-4H-pyrrolo[3,4-d]thiazol-2-yl)-5′-methoxy-6-methyl-[4,4′-bipyridine]-3-carboxamide]	1 to 15	
COc1cnc(Cl)cc1-c1cc(C)ncc1C(=O)Nc1nc2c(s1)CN(C(=O)c1c(C)nn(C)c1C)C2 [Example 76, 2′-chloro-5′-methoxy-6-methyl-N-(5-(1,3,5-trimethyl-1H-pyrazole-4-carbonyl)-5,6-dihydro-4H-pyrrolo[3,4-d]thiazol-2-yl)-[4,4′-bipyridine]-3-carboxamide]	1 to 15	
COc1ccc(C#N)cc1-c1cc(C)ncc1C(=O)Nc1nc2c(s1)CN(C(=O)[C@@H]1CCCO1)CC2	150 to 900	
COc1ccccc1-c1cc(C)ncc1C(=O)Nc1nc2c(s1)CN(C(=O)C1(C#N)CCOCC1)C2	≥ 900	
COc1ccccc1-c1cc(C)ncc1C(=O)Nc1nc2c(s1)CN(C(=O)c1cncc(C#N)c1)C2	50 to 150	
COc1cnc(Cl)cc1-c1cc(C)ncc1C(=O)Nc1nc2c(s1)CN(C(=O)[C@H]1CCOC1)C2	15 to 50	
CCn1nccc1C(=O)N1Cc2nc(NC(=O)c3cnc(C)cc3-c3cc(Cl)ncc3OC)sc2C1	1 to 15	
COc1ccccc1-c1cc(C)ncc1C(=O)Nc1nc2c(s1)CC(c1ccc(Cl)cc1)CC2 (centres unmarked)	150 to 900	
COc1ccc(C#N)cc1-c1cc(C)ncc1C(=O)Nc1nc2c(s1)CN(S(=O)(=O)c1cccnc1)C2	50 to 150	
COc1ccccc1-c1cc(C)ncc1C(=O)Nc1nc2c(s1)CN(C(=O)C1CCN(C)C1=O)C2 (centres unmarked)	≥ 900	
N-(5-(1H-pyrazole-4-carbonyl)-5,6- dihydro-4H-pyrrolo[3,4-d]thiazol-2-yl)- 2′-chloro-5′-methoxy-6-methyl-[4,4′- bipyridine]-3-carboxamide [Example 88]	15 to 50	
COc1cnc(Cl)cc1-c1cc(C)ncc1C(=O)Nc1nc2c(s1)C[C@@H](C(=O)N[C@H]1CC[C@@H]1O)CC2		150 to 900
COc1cnc(Cl)cc1-c1cc(C)ncc1C(=O)Nc1nc2c(s1)CN(C(=O)c1nn(C(F)F)cc1Cl)C2 [Example 55, 2′-chloro-N-(5-(4-chloro-1-(difluoromethyl)-1H-pyrazole-3-carbonyl)-5,6-dihydro-4H-pyrrolo[3,4-d]thiazol-2-yl)-5′-methoxy-6-methyl-[4,4′-bipyridine]-3-carboxamide]	1 to 15	
COc1ccc(C#N)cc1-c1cc(C)ncc1C(=O)Nc1nc2c(s1)CN(C(=O)[C@@H]1CC[C@H]1C)C2	1 to 15	
COc1ccc(C#N)cc1-c1cc(C)ncc1C(=O)Nc1nc2c(s1)CN(C(=O)c1cccnc1)CC2	150 to 900	
COc1cnc(Cl)cc1-c1cc(C)ncc1C(=O)Nc1nc2c(s1)CN(C(=O)c1cn(C)nc1C(F)(F)F)C2 [Example 61, 2′-chloro-5′-methoxy-6-methyl-N-(5-(1-methyl-3-(trifluoromethyl)-1H-pyrazole-4-carbonyl)-5,6-dihydro-4H-pyrrolo[3,4-d]thiazol-2-yl)-[4,4′-bipyridine]-3-carboxamide]	1 to 15	
COc1ccccc1-c1cc(C)ncc1C(=O)Nc1nc2c(s1)CN(C(=O)c1cc3ccccn3n1)C2	50 to 150	

Next, values leading:

IC50 [nM]	IC50 (POLθ ATPase, ADP-Glo) [nM]	Compound
1 to 15		COc1cnc(Cl)cc1-c1cc(C)ncc1C(=O)Nc1nc2c(s1)CN(C(=O)[C@H]1C[C@](O)(C(F)F)C1)C2 [Example 195]
	15 to 50	COc1cnc(Cl)cc1-c1cc(C)ncc1C(=O)Nc1nc2c(s1)CN(C(=O)c1ccc(C(F)(F)F)nc1OC)C2C (single isomer, unassigned) [Example 1037, (R or S)-2′-chloro-5′-methoxy-N-(5-(2-methoxy-6-(trifluoromethyl)nicotinoyl)-4-methyl-5,6-dihydro-4H-pyrrolo[3,4-d]thiazol-2-y])-6-methyl-[4,4′-bipyridine]-3-carboxamide]
≥ 900		COc1cnc(Cl)cc1-c1cc(C)ncc1C(=O)Nc1nc2c(s1)CC(N[C@H]1C[C@@H](O)C1)CC2 (some centres unmarked) [Example 99, 2′-chloro-N-(6-(((1s,3s)-3-hydroxycyclobutyl)amino)-4,5,6,7-tetrahydrobenzo[d]thiazol-2-yl)-5′-methoxy-6-methyl-[4,4′-bipyridine]-3-carboxamide]
1 to 15		COc1cnc(Cl)cc1-c1cc(C)ncc1C(=O)Nc1nc2c(s1)CN(C(=O)[C@H]1CCCCO1)C2 [Example 186]
15 to 50		COc1cnc(Cl)cc1-c1cc(C)ncc1C(=O)Nc1nc2c(s1)CN(C(=O)[C@H]1CC[C@@H](O)CC1)C2 [Example 115]
1 to 15		COc1cn2cncc2cc1-c1cc(C)ncc1C(=O)Nc1nc2c(s1)CN(C(=O)[C@H]1C[C@@H](OC(F)(F)F)C1)C2 [Example 97, 4-(6-methoxyimidazo[1,5-a]pyridin-7-yl)-6-methyl-N-(5-((1s,3s)-3-(trifluoromethoxy)cyclobutane-1-carbonyl)-5,6-dihydro-4H-pyrrolo[3,4-d]thiazol-2-yl)nicotinamide]
15 to 50		COc1ccccc1-c1cc(C)ncc1C(=O)Nc1nc2c(s1)CN(C(=O)c1cccc3ccnn13)C2 [Example 253]
50 to 150		COc1ccccc1-c1cc(C)ncc1C(=O)Nc1nc2c(s1)CN(S(=O)(=O)NC(C)C)C2 [Example 280]
150 to 900		COc1ccccc1-c1cc(C)ncc1C(=O)Nc1nc2c(s1)CN(C(=O)c1cccnn1)C2 [Example 342, 4-(2-methoxyphenyl)~6-methyl-N-[5-(1-methyl-6-oxo-1,6-dihydropyridine-3-carbonyl)-4H,5H,6H-pyrrolo[3,4-d][1,3]thiazol-2-yl]pyridine-3-carboxamide]
15 to 50		COc1cnc(Cl)cc1-c1cc(C)ncc1C(=O)Nc1nc2c(s1)CN(C(=O)[C@@H]1C[C@@H]1C(F)F)C2 [Example 104, 2′-chloro-N-(5-((1R,2S)-2-(difluoromethyl)cyclopropane-1-carbonyl)-5,6-dihydro-4H-pyrrolo[3,4-d]thiazol-2-yl)-5′-methoxy-6-methyl-[4,4′-bipyridine]-3-carboxamide]
15 to 50		COc1ccc(C#N)cc1-c1cc(C)ncc1C(=O)Nc1nc2c(s1)CN(C(=O)C1CC1OC)CC2 (centres unmarked) [Example 207]
150 to 900		COc1ccc(C#N)cc1-c1cc(C)ncc1C(=O)Nc1nc2c(s1)CN(C(=O)C1CC1(F)F)CC2 (single isomer, unassigned) [Example 210]
150 to 900		COc1ccc(C#N)cc1-c1cc(C)ncc1C(=O)Nc1nc2c(s1)CN(C(=O)c1ccncc1)CC2 (racemic) [Example 213]
1 to 15		COc1cnc(Cl)cc1-c1cc(C)ncc1C(=O)Nc1nc2c(s1)CN(C(=O)[C@H]1CC[C@H](O)CC1)C2 [Example 96, 2′-chloro-N-(5-((1r,4r)-4-hydroxycyclohexane-1-carbonyl)-5,6-dihydro-4H-pyrrolo[3,4-d]thiazol-2-yl)-5′-methoxy-6-methyl-[4,4′-bipyridine]-3-carboxamide]
1 to 15		COc1cnc(Cl)cc1-c1cc(C)ncc1C(=O)Nc1nc2c(s1)CN(C(=O)C1CCC(OC)C1)C2 (racemic) [Example 101, (Racemic)-2′-chloro-5′-methoxy-N-(5-(3-methoxycyclopentane-1-carbonyl)-5,6-dihydro-4H-pyrrolo[3,4-d]thiazol-2-yl)-6-methyl-[4,4′-bipyridine]-3-carboxamide]
≥ 900		COc1cnc(Cl)cc1-c1cc(C)ncc1C(=O)Nc1nc2c(s1)CC(N1CCCCC1)CC2 (racemic) [Example 110]
1 to 15		COc1ccc(C#N)cc1-c1cc(C)ncc1C(=O)Nc1nc2c(s1)CN(C(=O)C1CC(C)C1)C2 (centres unmarked) [Example 189]
150 to 900		COc1ccccc1-c1cc(C)ncc1C(=O)Nc1nc2c(s1)CN(C(=O)C1COC1)C2 [Example 256]
1 to 15		COc1cnc(Cl)cc1-c1cc(C)ncc1C(=O)Nc1nc2c(s1)CN(C(=O)C1CC(OC(C)C)C1)C2 (centres unmarked) [Example 119]
150 to 900		COc1cnccc1-c1cc(C)ncc1C(=O)Nc1nc2c(s1)CN(C(=O)c1ccccn1)C2 [Example 98, 3′-methoxy-6-methyl-N-(5-picolinoyl-5,6-dihydro-4H-pyrrolo[3,4-d]thiazol-2-yl)-[4,4′-bipyridine]-3-carboxamide]
1 to 15		COc1cnc(Cl)cc1-c1cc(C)ncc1C(=O)Nc1nc2c(s1)CN(C(=O)[C@@H]1CCOC1)C2 [Example 181]

Source: patent publication US20250230171A1 (MOMA Therapeutics, Inc., priority 2023, published 2025)
